melting point | Compound
175 °C | N#CCC(=O)N[C@H]1CC[C@H](CCN2CCN(c3cccc4c3CCCC4)CC2)CC1 [Example 116, 2-Cyano-N-(4-{2-[4-(5,6,7,8-tetrahydronaphthalen-1-yl)piperazin-1-yl]ethyl}cyclohexyl)acetamide]
237 °C | N#CCC(=O)N[C@H]1CC[C@H](CCN2CCN(c3ccc(Cl)c(Cl)c3F)CC2)CC1 [Example 519, 2-Cyano-N-(4-{2-[4-(3,4-dichloro-2-fluorophenyl)piperazin-1-yl]ethyl}cyclohexyl)acetamide]
130 °C | CCOCC(=O)N[C@H]1CC[C@H](CCN2CCN(c3ccc(F)cc3F)CC2)CC1 [Example 503, N-(4-{2-[4-(2,4-Difluorophenyl)piperazin-1-yl]ethyl}cyclohexyl)-2-ethoxyacetamide]
167 °C | COCCCC(=O)N[C@H]1CC[C@H](CCN2CCN(c3cc(C)cc(Cl)c3)CC2)CC1 [Example 578, N-(4-{2-[4-(3-Chloro-5-methylphenyl)piperazin-1-yl]ethyl}cyclohexyl)-4-methoxybutanamide]
117 to 118 °C | CCOCC(=O)N[C@H]1CC[C@H](CCN2CCN(c3ccccc3F)CC2)CC1 [Example 56, 2-Ethoxy-N-(4-{2-[4-(2-fluorophenyl)piperazin-1-yl]ethyl}cyclohexyl)acetamide]
146 °C | COCC(=O)N[C@H]1CC[C@H](CCN2CCN(c3ccc(F)c(C(F)(F)F)c3)CC2)CC1 [Example 760, N-(4-{2-[4-(4-Fluoro-3-trifluoromethylphenyl)piperazin-1-yl]ethyl}cyclohexyl)-2-methoxyacetamide]
170 °C | N#CCCCC(=O)N[C@H]1CC[C@H](CCN2CCN(c3ccccc3F)CC2)CC1 [Example 204, 4-Cyano-N-(4-{2-[4-(2-fluorophenyl)piperazin-1-yl]ethyl}cyclohexyl)butanamide]
256 °C | CC(=O)CN1CCC(CCN2CCN(c3cccc(C(C)(F)F)c3)CC2)CC1.Cl.Cl
210 °C | N#CCC(=O)N[C@H]1CC[C@H](CCN2CCN(c3ccc(F)c(C#N)c3F)CC2)CC1 [Example 687, 2-Cyano-N-(4-{2-[4-(3-cyano-2,4-difluorophenyl)piperazin-1-yl]ethyl}cyclohexyl)acetamide]
200 °C | COc1ccc(N2CCN(CC[C@H]3CC[C@H](NC(=O)CCCC#N)CC3)CC2)cc1 [Example 582, 4-Cyano-N-(4-{2-[4-(4-methoxyphenyl)piperazin-1-yl]ethyl}cyclohexyl)butanamide]
172 °C | COCCCC(=O)N[C@H]1CC[C@H](CCN2CCN(c3ccccc3)CC2)CC1 [Example 99, 4-Methoxy-N-{4-[2-(4-phenylpiperazin-1-yl)ethyl]cyclohexyl}butanamide]
207 °C | N#CCCC(=O)N[C@H]1CC[C@H](CCN2CCN(c3ccc(C(F)(F)F)cc3)CC2)CC1 [Example 643, 3-Cyano-N-(4-{2-[4-(4-trifluoromethylphenyl)piperazin-1-yl]ethyl}cyclohexyl) propanamide]
162 °C | CO[C@H](C)C(=O)N[C@H]1CC[C@H](CCN2CCN(c3ccccc3F)CC2)CC1 (stereo in doubt) [Example 75, N-(4-{2-[4-(2-Fluorophenyl)-piperazin-1-yl]ethyl}cyclohexyl)-2-methoxypropanamide]
192 °C | N#CCCCC(=O)N[C@H]1CC[C@H](CCN2CCN(c3ccc(F)c(Cl)c3F)CC2)CC1 [Example 552, N-(4-{2-[4-(3-Chloro-2,4-difluorophenyl)piperazin-1-yl]ethyl}cyclohexyl)-4-cyanobutanamide]
171 °C | COCCCC(=O)N[C@H]1CC[C@H](CCN2CCN(c3cc(C)c(F)cc3Cl)CC2)CC1 [Example 580, N-(4-{2-[4-(2-Chloro-4-fluoro-5-methylphenyl)piperazin-1-yl]ethyl}cyclohexyl)-4-methoxybutanamide]
180 °C | N#CCCCC(=O)N[C@H]1CC[C@H](CCN2CC=C(c3ccc(F)cc3)CC2)CC1
150 °C | CC(C)(C#N)C(=O)N[C@H]1CC[C@H](CCN2CCN(c3cccc(C(F)(F)F)c3)CC2)CC1 [Example 282, 2-Cyano-2,2-dimethyl-N-(4-{2-[4-(3-trifluoromethylphenyl)-piperazin-1-yl]ethyl}cyclohexyl)-acetamide]
196 °C | N#CC1CC1C(=O)N[C@H]1CC[C@H](CCN2CCN(c3cc(C(F)(F)F)ccc3F)CC2)CC1 (stereo partly drawn) [Example 763, 2-Cyano-cyclopropanecarb-oxylic acid (4-{2-[4-(2-fluoro-5-trifluoromethylphenyl)piperazin-1-yl]ethyl}cyclohexyl) amide]
179 to 182 °C | Cc1c(Cl)cccc1N1CCN(CC[C@H]2CC[C@H](NC(=O)CC#N)CC2)CC1 [Example 136, N-(4-{2-[4-(3-Chloro-2-methylphenyl)piperazin-1-yl]ethyl}cyclohexyl)-2-cyanoacetamide]
268 °C | CC(=O)CN1CCC(CCN2CCN(c3cccc(F)c3)CC2)CC1.Cl.Cl
168 °C | COCCCC(=O)N[C@H]1CC[C@H](CCN2CCN(c3cc(C(F)(F)F)cc(C(F)(F)F)c3)CC2)CC1 [Example 741, N-(4-{2-[4-(3,5-Bistrifluoro-methylphenyl)piperazin-1-yl]ethyl}cyclohexyl)-4-methoxybutanamide]
128 °C | CSCC(=O)N[C@H]1CC[C@H](CCN2CCN(c3cccc(C(F)(F)F)c3)CC2)CC1 [Example 80, 2-Methylsulfanyl-N-(4-{2-[4-(3-trifluoromethylphenyl)piperazin-1-yl]ethyl}cyclohexyl)acetamide]
148 °C | CCC(=O)C(=O)N1CCC(CCN2CCN(c3cccc(C(F)(F)F)c3)CC2)CC1.Cl
271 °C | CCOc1ccccc1N1CCN(CCC2CCN(CC(C)=O)CC2)CC1.Cl.Cl

Continued, molecule first:

Compound | melting point
CCOCC(=O)N[C@H]1CC[C@H](CCN2CCN(c3cc(C)c(F)cc3Cl)CC2)CC1 [Example 579, N-(4-{2-[4-(2-Chloro-4-fluoro-5-methylphenyl)piperazin-1-yl]ethyl}cyclohexyl)-2-ethoxyacetamide] | 132 °C
Cc1ccc(N2CCN(CC[C@H]3CC[C@H](NC(=O)CC(F)(F)F)CC3)CC2)cc1 [Example 493, 3,3,3-Trifluoro-N-{4-[2-(4-p-tolylpiperazin-1-yl)ethyl]cyclohexyl}propanamide] | 217 °C
N#CCC(=O)N[C@H]1CC[C@H](CCN2CCN(c3cccc(-c4ccccc4)c3)CC2)CC1 [Example 276, N-{4-[2-(4-Biphenyl-3-yl-piperazin-1-yl)ethyl]cyclohexyl}-2-cyanoacetamide] | 157 °C
CC(=O)CN1CCC(CCN2CC=C(c3cccc(C(F)(F)F)c3)CC2)CC1.Cl.Cl | 268 °C
Cc1cccc(N2CCN(CC[C@H]3CC[C@H](NC(=O)C4=CCCC4)CC3)CC2)c1 [Example 380, Cyclopent-1-enecarboxylic acid {4-[2-(4-m-tolylpiperazin-1-yl)ethyl]cyclohexyl} amide] | 188 °C
N#CCC(=O)N[C@H]1CC[C@H](CCN2CCN(c3cc(F)c(F)c(F)c3F)CC2)CC1 [Example 708, 2-Cyano-N-(4-{2-[4-(2,3,4,5-tetrafluorophenyl)piperazin-1-yl]ethyl}cyclohexyl)acetamide] | 214 °C
O=C(CC(F)(F)F)N[C@H]1CC[C@H](CCN2CCN(c3ccccc3)CC2)CC1 [Example 188, 3,3,3-Trifluoro-N-{4-[2-(4-phenylpiperazin-1-yl)ethyl]cyclohexyl}propanamide] | 185 °C
O=C(N[C@H]1CC[C@H](CCN2CCN(c3cccc(F)c3)CC2)CC1)C1=CCCC1 [Example 400, Cyclopent-1-enecarboxylic acid (4-{2-[4-(3-fluorophenyl)-piperazin-1-yl]ethyl}cyclohexyl) amide] | 202 °C
COc1cc(OC)cc(N2CCN(CC[C@H]3CC[C@H](NC(=O)CCCC#N)CC3)CC2)c1 [Example 392, 4-Cyano-N-(4-{2-[4-(3,5-dimethoxyphenyl)piperazin-1-yl]ethyl}cyclohexyl)butanamide] | 147 °C
O=C(N[C@H]1CC[C@H](CCN2CCN(c3cc(Cl)ccc3F)CC2)CC1)C1=CCCC1 [Example 525, Cyclopent-1-enecarboxylic acid (4-{2-[4-(5-chloro-2-fluorophenyl)piperazin-1-yl]ethyl}cyclohexyl) amide] | 198 °C
CC(=O)CN1CCC(CCN2CCN(c3ccc(Cl)cc3F)CC2)CC1.Cl.Cl | 206 °C
CSc1ccccc1N1CCN(CC[C@H]2CC[C@H](NC(=O)CC#N)CC2)CC1 [Example 194, 2-Cyano-N-(4-{2-[4-(2-methylsulfanylphenyl)piperazin-1-yl]ethyl}cyclohexyl)acetamide] | 146 °C
CC(=O)CN1CCC(CCN2CC=C(c3ccccc3)CC2)CC1 | 80 °C
CC(=O)CN1CCC(CCN2CCN(c3ccccc3Cl)CC2)CC1.Cl.Cl | 265 °C
CC(=O)CCCN1CCC(CCN2CCN(c3cccc(C(F)(F)F)c3)CC2)CC1.Cl.Cl | 315 °C
CCc1cccc(N2CCN(CCC3CCN(CC(C)=O)CC3)CC2)c1.Cl.Cl | 266 °C
COCC(=O)N[C@H]1CC[C@H](CCN2CCN(c3ccc(Cl)c(Cl)c3F)CC2)CC1 [Example 719, N-(4-{2-[4-(3,4-Dichloro-2-fluorophenyl)piperazin-1-yl]ethyl}cyclohexyl)-2-methoxyacetamide] | 172 °C
N#CCC(=O)N[C@H]1CC[C@H](CCN2CCN(c3c(F)c(F)c(F)c(F)c3F)CC2)CC1 [Example 753, 2-Cyano-N-{4-[2-(4-pentafluorophenylpiperazin-1-yl)ethyl]cyclohexyl}acetamide] | 202 °C
CCc1ccc(N2CCN(CC[C@H]3CC[C@H](NC(=O)CC#N)CC3)CC2)c(CC)c1 [Example 255, 2-Cyano-N-(4-{2-[4-(2,4-diethylphenyl)piperazin-1-yl]ethyl}cyclohexyl)acetamide] | 183 °C
CC(=O)CN1CCC(CCN2CC=C(c3cc(F)cc(C(F)(F)F)c3)CC2)CC1.Cl.Cl | 287 °C
N#CCC(=O)N[C@H]1CC[C@H](CCN2CCN(c3cc(F)cc(F)c3)CC2)CC1 [Example 159, 2-Cyano-N-(4-{2-[4-(3,5-difluorophenyl)piperazin-1-yl]ethyl}cyclohexyl)acetamide trans/cis 95/5] | 196 °C
